Experimental data published in PubChem BioAssay (NCI).
Values joined by “and” are separate entries in the source; they are usually repeats but may differ in a detail not shown here. Equal entries are not always repeated.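 Assay format: 96-well plates, 48-hour exposure. GI50 is the concentration that inhibits growth by half. Definition used: TGI = concentration required for complete inhibition of growth.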

Tests used:
Experiment in all cases: NCI anticancer screen, dose series, 48 h
SF-295 CNS = test system: SF-295 CNS
A549 NSCLC = test system: A549 NSCLC
SK-MEL-2 melanoma = test system: SK-MEL-2 melanoma
CAKI-1 renal = test system: CAKI-1 renal
SW-620 colon = test system: SW-620 colon
OVCAR-8 ovarian = test system: OVCAR-8 ovarian
HCC-2998 colon = test system: HCC-2998 colon
MALME-3M melanoma = test system: MALME-3M melanoma
SR leukemia = test system: SR leukemia
HL-60(TB) leukemia = test system: HL-60(TB) leukemia

Row | SMILES | GI50 (SF-295 CNS) [µM] | TGI (SF-295 CNS) [µM] | GI50 (A549 NSCLC) [µM] | TGI (A549 NSCLC) [µM] | GI50 (SK-MEL-2 melanoma) [µM] | TGI (SK-MEL-2 melanoma) [µM] | GI50 (CAKI-1 renal) [µM] | TGI (CAKI-1 renal) [µM] | GI50 (SW-620 colon) [µM] | TGI (SW-620 colon) [µM] | GI50 (OVCAR-8 ovarian) [µM] | TGI (OVCAR-8 ovarian) [µM] | GI50 (HCC-2998 colon) [µM] | TGI (HCC-2998 colon) | TGI (MALME-3M melanoma) [µM] | TGI (SR leukemia) [µM] | TGI (HL-60(TB) leukemia) [µM] | GI50 (MALME-3M melanoma) | GI50 (SR leukemia) [µM] | GI50 (HL-60(TB) leukemia) [µM]
1 | O=c1[nH]c(=O)c2cc3cc(C4CC(O)C(CO)O4)ccc3cc2[nH]1 (stereo not given) | > 100 | > 100 | > 100 | > 100 | 11.3 | > 100 | > 100 | > 100 | > 100 | > 100 | > 100 | > 100 | > 100 | > 100 µM |  |  |  |  |  | 
2 | O=C(NC(=O)c1ccccc1[N+](=O)[O-])Nc1ccc(Oc2ncc(Cl)cn2)c([N+](=O)[O-])c1 |  |  |  | > 100 |  | > 100 |  | > 100 |  | > 100 |  | > 100 |  |  | > 100 | > 100 | 1.17 |  |  | 
3 | O=c1c2ccccc2nc(/C=C(\O)c2ccncc2)n1-c1ccc(Cl)cc1 |  | > 100 |  | > 100 |  | > 100 |  | > 100 |  | > 100 |  | > 100 |  |  | > 100 | > 100 | > 100 |  |  | 
4 | CCOC(=O)C(N=C(c1ccccc1)c1ccccc1)N(C(=O)OC(C)(C)C)C(=O)OC(C)(C)C (stereo not given) |  | > 100 |  | > 100 |  | > 100 |  | > 100 |  | > 100 |  | > 100 |  | > 100 µM | > 100 | > 100 |  |  |  | 
5 | c1ccc2cc(NCNc3ccc4ccccc4c3)ccc2c1 |  | 33.9 |  | 47.5 |  | 32.1 |  | 42.7 |  | > 100 |  | 58.2 |  |  | 20 | 31.4 | 3.79 |  |  | 
6 | Cc1cc(C)n(-c2ccnc3cc(Cl)ccc23)n1 |  | > 100 |  | > 100 |  | > 100 |  |  |  | > 100 |  | > 100 |  | > 100 µM | > 100 | > 100 | > 100 |  |  | 
7 | N#C[Se]CCN1C(=O)C2C(C1=O)[C@H]1C=C[C@@H]2S1 (stereo not given in full) | 1.83 | 3.35 | 1.93 | 4.56 | 2.44 | 6.43 | 1.9 | 3.39 | 2.87 | 8.19 | 2.11 | 5.26 | 2.18 | 5.44 µM | 3.65 | 7.7 |  | 1.53 µM | 1.98 | 
8 | COC(=O)c1ccccc1N1C(=O)Cc2ccccc2C1=O |  | > 100 |  | > 100 |  | > 100 |  |  |  | > 100 |  | > 100 |  | > 100 µM | > 100 | > 100 |  |  |  | 
9 | C/C(CC(=O)Nc1cc(C)ccc1C)=N/N=C(N)N |  | > 100 |  | > 100 |  | > 100 |  |  |  | > 100 |  | > 100 |  | > 100 µM | > 100 |  | > 100 |  |  | 
10 | C#CCN(Cc1nc2cc(C(F)(F)F)ccc2nc1-c1ccccc1)c1ccc(C)cc1 | 4.78 | > 31.8 | 9.23 | > 93 | 6.19 | 34.5 | 8.15 | > 43.4 | 12.8 | > 100 | 10.9 | > 73.9 |  |  | 42.3 | 41.3 | > 74.5 | 15.7 µM | 16.1 | 3.85
11 | COc1ccc2c(O)c(/C=C3\N=Nc4ccccc43)oc2c1C[C@@H]1CCNC[C@H]1F | 3.31 | 15.3 | 13.5 | 28 | 17 | 32.5 | 12.3 | 25 | 2.51 | 11.7 | 2.28 | 5.53 |  |  | 22.5 | 5.48 | 37.8 | 3.33 µM | 1.5 | 16
12 | CCCCCCCCCCCCSC1=C(Cl)C(=O)C(OC)=C(OC)C1=O | 2.03 | 7 | 4.39 | 21.1 | 4.36 | 14.8 | 4.79 | 34.2 | 0.63 | 17.5 | 2.35 | > 100 | 2.41 | 10.9 µM | 14.2 |  | 5.82 | 0.539 µM |  | 0.0502
13 | COc1cc2c(c(OC)c1OC)-c1ccc(OC)c(=O)cc1[C@@H](NC(C)=O)CC2 |  |  |  | > 100 | 0.48 |  |  |  |  | > 394 | 1.35 | > 100 |  | 1.01 µM and 7.43 µM |  | > 100 |  | 4.33 µM and 1.35 µM | < 0.01 | 
14 | CC1(Br)CC2OC3(Br)C=CC(C)(O)C2(CC1=O)C3(C)C (stereo not given) |  | > 100 |  | > 100 |  | > 100 |  | > 100 |  | > 100 |  | > 100 |  | > 100 µM | > 100 | > 100 |  |  |  | 
15 | O=C(c1ccccc1)C(c1ccccc1)C1(O)C(=O)Nc2ccc([N+](=O)[O-])cc21 (stereo not given) |  |  |  | > 100 |  | > 100 |  | > 100 |  | > 100 |  | > 100 |  | > 100 µM | > 100 |  | > 100 |  |  | 
16 | O=C(O)COc1ccc(C(=O)/C(SS/C(C(=O)c2ccc(OCC(=O)O)c(Cl)c2Cl)=C2\C=C(c3ccc(Cl)cc3)SS2)=C2/C=C(c3ccc(Cl)cc3)SS2)c(Cl)c1Cl |  | 82.5 |  | 41.7 |  | 33.7 |  | > 100 |  | 11.5 |  | > 100 |  | 25.3 µM | > 100 |  | 2.1 |  |  | 
17 | Cc1ccc(NC(=O)c2cc3ccccc3c(N=Nc3cc(S(=O)(=O)O)ccc3O)c2O)c(C)c1 |  | 88.9 |  | 80.9 |  | 78.5 |  | > 100 |  | > 100 |  | > 100 |  |  | 63.8 |  |  |  |  | 
18 | COc1ccc(NC(=O)CC/C(CC(=O)c2ccco2)=N/NC(N)=S)cc1 |  | > 100 |  | > 100 |  | > 100 |  | > 100 |  | > 100 |  | > 100 |  | > 100 µM | > 100 |  | > 100 |  |  | 
19 | NC1CCCCC1N.O=[Se]([O-])[O-].[Pt+4] (stereo not given) | 0.304 | 21.6 | 0.48 | > 61.8 | 6 | 31.1 | 1.08 | 45.3 | 0.0901 | > 39.9 | 0.922 | > 100 | 2.98 | 11.1 µM | 5.26 |  | > 28.9 | 0.986 µM |  | 0.315
